Marks after values point to notes of the source that are not given here.

A short description of test [1]: DPPH radical scavenging capacity by EPR. The following applies: test compounds 25 μM in ethanol, EPR after 1 min. How it is done:
An ORAC (Oxygen Radical Absorbance Capacity) assay was carried out using a Fluostar Optima plate reader (BMG Labtech, Durham, N.C.) equipped with an incubator and two injector pumps. A modified method for lipophilic antioxidants was followed, in which randomly methylated cyclodextrin (RMCD) was used as water solubility enhancer, as described by Huang et al, J. Agric. Food Chem., 2002, 50, 1815-1821. Trolox standards (6.25-50 μM) and samples (0.25 μM) were dissolved in acetone/water (1:1, v/v) containing 7% RMCD. Fluorescein and […] [2,2′-azobis(2-aminopropane)dihydrochloride] were used as the probe and radical generator, respectively. Twenty microliters of trolox standard or test compound solutions (7% RMCD used as a control) were added into each well of a 96-well black microplate, followed by addition of fluorescein. The plate was incubated at 37° C. for 15 min and then AAPH in buffer was injected into the wells. The conditions used were as follows: 0.3 s position delay, 8 s orbital shaking before each cycle with 4 mm width, 210 s cycle time, and 25 cycles. Fluorescence was measured at an excitation wavelength of 485 nm and emission of 520 nm. A standard curve was plotted and ORAC values for test compounds were obtained as mol of trolox equivalents (TE) per mol of test compound. (3b) Reducing Power The reducing power of EGCG and its derivatives (compounds 1a-1c) was determined according to Oyaizu (1986). One milliliter of test compounds (1 mM in 95% ethanol) was mixed with 2.5 ml of phosphate buffer solution (PBS, 0.2 M, pH 6.6) and 2.5 ml of a 1% solution of potassium ferricyanide, K3Fe(CN)6. The mixture was incubated at 50° C. for 20 min. […] The content was mixed well and the absorbance was recorded at 700 nm. Higher absorbance of the reaction mixture indicates greater reducing power. […] (3c) Metal Chelation The metal chelation capacity was measured following a procedure by Decker E. A. et al., J. Agric. […] The absorbance was measured afterwards at 562 nm. A blank without ferrozine was run for each compound, since the antioxidant-Fe^2+ complex gives a colour that might interfere with the absorbance reading. Metal chelation capacity was calculated using the following equation: % chelation=[1−(Abs.sample−Abs.blank)/Abs.control]×100 where, control was devoid of test compounds, while blank contained no ferrozine. (3d) DPPH Antioxidant activity of the lipophilic EGCG derivatives was ALSO evaluated as DPPH (1,1-diphenyl-2-picrylhydrazyl) radical scavenging capacity using EGCG as the reference. DPPH scavenging capacity of test compounds was determined by EPR (electron paramagnetic resonance) according to Madhujith and Shahidi (16) with slight modifications. […] The spectrum was recorded after 1 min. […]

Test [2] can be described thus: TBARS formation in cooked pork model system. The following applies: 80 μmol/kg meat, stored at 4° C. How it is done:
Fresh ground pork (40 g) was mixed with deionized water (10 g) in a Mason jar. Samples and reference antioxidant compound (BHA) dissolved in ethanol were added to meat at a level of 80 μmol/kg. A control without any antioxidant was also prepared. The content was thoroughly mixed and cooked at 80° C. in a thermostated water bath for 40 min with intermittent stirring. The cooked meat was cooled to room temperature and homogenized with a Polytron PT 3000 (Brinkmann Instruments, Rexdale, ON) homogenizer. The homogenate was then transferred into plastic bags and stored at 4° C. for 14 days. […].
TBARS values were determined as described by Shahidi and Hong (Shahidi, F. and Hong, C. Evaluation of malonaldehyde as a marker of oxidative rancidity in meat products. J. Food Biochem. 15, 97-105, 1991).
A series of TMP (1,1,3,3-tetramethoxypropane) standard solutions at difference concentrations was mixed with thiobarbituric acid (TBA) in screw-capped tubes and heated in a boiling water bath for 45 min. After cooling on ice, the absorbance was recorded at 532 nm and a standard curve was constructed (absorbance versus concentration). For TBARS in the cooked meat model system, 2 g of meat were mixed with 5 ml of trichloroacetic acid (TCA, 10% w/v) in a centrifuge tube, followed by addition of 5 ml of TBA reagent. The mixture was centrifuged at 3000×g for 10 min and the supernatant was filtered. The filtrate was heated in a boiling water bath for 45 min and absorbance was measured at 532 nm after cooling to room temperature. TBARS values in meat samples were obtained using the standard curve as μmol malonaldehyde equivalents/kg of meat. Antioxidant activity was calculated as percentage inhibition of TBARS formation by test compounds.

Test [3] is described as follows: Inhibition against UV-induced liposome oxidation. The settings on record: UV 254 nm, 45 min. How it is done: To prepare liposome MLV, 10 mg of egg yolk PC were dissolved in a small amount of chloroform in a round bottom flask and the solvent was removed using a rotary evaporator followed by nitrogen flush. The thin film on the inner surface of the flask was suspended in 10 ml of PBS (10 mM, pH7.4, 150 mM NaCl) by vortex and sonication, and the emulsion was then repeatedly frozen and thawed for 4 times. The liposomal MLV obtained were diluted by 90 ml of PBS, and an aliquot (750 μL) was transferred into an Eppendorf tube containing 10 μL of test compounds dissolved in ethanol and 240 μL of PBS. The content was mixed well and incubated at 37° C. for 15 min. After incubation, the mixture was exposed to UV irradiation (254 nm) for 45 min. The oxidation was detected by measuring conjugated dienes (CD) spectrophotometically at 234 nm against a blank without liposome (test compounds+PBS). Conjugated diene values were calculated as follows using blank-corrected absorbances. CD(mol/g of PC)=Abs./εLC, where ε is the absorptivity constant (29500 M^−1cm^−1), L is the length of the cuvette (1 cm) and C is the final concentration of PC (g/L). […] Discussion

Regarding `CCCCCCCCCCCCCCCCCC(=O)Oc1cc(C(=O)OC2Cc3c(O)cc(O)cc3OC2c2cc(OC(=O)CCCCCCCCCCCCCCCCC)c(O)c(OC(=O)CCCCCCCCCCCCCCCCC)c2)cc(OC(=O)CCCCCCCCCCCCCCCCC)c1O` (stereo not drawn) [Compound 1a, EGCG stearate], the DPPH scavenging in test [1] turned out to be 5.85 mmol trolox eq./mol. In test [2], the “Inhibition of TBARS formation in cooked pork” value (shortened to “Inhibition of TBARS formation”) is listed as 86.3 ± 2.10^a %. The “% inhibition of UV-induced liposome oxidation (conjugated dienes)” value (“% inhibition” for short) in test [3] was found to be 47.59%.
As for `CCC=CCC=CCC=CCC=CCC=CCCCC(=O)Oc1cc(C(=O)OC2Cc3c(O)cc(O)cc3OC2c2cc(OC(=O)CCCC=CCC=CCC=CCC=CCC=CCC)c(O)c(OC(=O)CCCC=CCC=CCC=CCC=CCC=CCC)c2)cc(OC(=O)CCCC=CCC=CCC=CCC=CCC=CCC)c1O` (stereo not drawn) [Compound 1b], the DPPH scavenging in test [1] turned out to be 4.66 mmol trolox eq./mol. Moreover, the “Inhibition of TBARS formation” value in test [2] is listed as 80.5 ± 0.80^bc %. Further, the “% inhibition” value in test [3] was found to be 3.47%.
In test [1], `CCC=CCC=CCC=CCC=CCC=CCC=CCCC(=O)Oc1cc(C(=O)OC2Cc3c(O)cc(O)cc3OC2c2cc(OC(=O)CCC=CCC=CCC=CCC=CCC=CCC=CCC)c(O)c(OC(=O)CCC=CCC=CCC=CCC=CCC=CCC=CCC)c2)cc(OC(=O)CCC=CCC=CCC=CCC=CCC=CCC=CCC)c1O` (stereo not drawn) [Compound 1c] yielded a DPPH scavenging of 5.09 mmol trolox eq./mol. Moreover, in test [2], the “Inhibition of TBARS formation” value is listed as 78.4 ± 1.62^c %. The “% inhibition” value in test [3] is 16.22%.
On to `O=C(O[C@@H]1Cc2c(O)cc(O)cc2O[C@@H]1c1cc(O)c(O)c(O)c1)c1cc(O)c(O)c(O)c1` [EGCG, Epigallocatechin gallate, reference compound], for which the DPPH scavenging in test [1] was 3.13 mmol trolox eq./mol. In test [2], the “Inhibition of TBARS formation” value is given as 71.9 ± 1.56^d %. The “% inhibition” value in test [3] worked out at 9.53%.
